Experiments:
Type in all cases: cell-based
HCV replicon = assay: Anti-HCV assay/Replicon assay 2 (luciferase); details: Hepatitis C virus, 72 h, 3 days
Method: • HCV Replicon Media • DMEM w/High Glucose (or MEM) • 1× Glutamine • 1× Sodium Pyruvate • 10% Heat Inactivated FBS • 1× Antibiotics Cell Culture Preparation • 1. Unthaw frozen stock in 10-12 mls of Media • 2. Allow cells to attach before adding G418 (4-6 hrs) • 3. Add G418 for a final concentration of 200 ug/mL (higher amounts are possible but cells grow slowly) • 4. Split cells 1:4 to 1:6 for optimal growth • 5. In-house replicon seems to maintain Luciferase signal for ˜20 passages HCV Replicon Assay • 1. Dilute compounds in 100 uL of HCV Replicon Media (without G418). If compounds are diluted in DMSO add DMSO to media (Final DMSO concentration should be <1%) • 2. Once cells have reached 80-90% confluency, trypsinize with 1× Trypsin • 3. […] These cells tend to clump if over trypsinized • 4. For 96 well format add 6,000-8,000 cells per well (G418 is withheld during compound testing) • 5. Incubate for 3 days at 37° C. Cells should be very close to confluent. • 6. Remove media and wash cells with 1×PBS • 7. Remove PBS and add 100 μL of 1×Promega Lysis Buffer • 8. Incubate cells at Room Temperature for 5-20 minutes • 9. Add 100 μL of room temperature Luciferase Substrate Solution (Promega) to Microfluor Black Plate (VWR) • 10. Thoroughly Mix Cell lysate (pipet up and down) before adding to Luciferase substrate • 11. Add 75 μL of lysate to the Luciferase substrate solution • 12. Read Plate On Top Count (FusionLucB program˜5 second read) • 13. Left over lysate can be frozen and used for later analysis Determination of Cytostatic Effect on MDBK Cells

[1] = HCV CC50 assay protocol (MTT); details: HCV replicon cells
Method: (§1) • HCV Replicon Media • DMEM w/High Glucose (or MEM) • 1×Glutamine • 1× Sodium Pyruvate • 10% Heat Inactivated FBS • 1× Antibiotics Cell Culture Preparation • 1. Unthaw frozen stock in 10-12 mls of Media • 2. Allow cells to attach before adding G418 (4-6 hrs) • 3. Add G418 for a final concentration of 200 ug/ml (higher amounts are possible but cells grow slowly) • 4. Split cells 1:4 to 1:6 for optimal growth • 5. In-house replicon seems to maintain Luciferase signal for ˜20 passages HCV Replicon Assay • 1 Dilute compounds in 100 uL of HCV Replicon Media (without G418). If compounds are diluted in DMSO add DMSO to media (Final DMSO concentration should be <1%) • 2. Once cells have reached 80-90% confluency, trypsinize with 1×Trypsin • 3. […] These cells tend to clump if over trypsinized • 4. For 96 well format add 6,000-8,000 cells per well (G418 is withheld during compound testing) • 5. Incubate for 3 days at 37° C. Cells should be very close to confluent. • 6. Remove media and add 200 μL of a 0.2 mg/mL MTT solution prepared in media. • 7. Incubate for 1.5 hours to 2 hours. • 8. Remove media and add 150 μL of DMSO • 9. Mix and incubate for 5 mins at room temperature • 10. Read plate at 530 nm in the plate reader. Results

HCV replicon cells = assay: HCV CC50 assay protocol (MTT); details: 3 days
Method: as §1

SMILES	EC50 (HCV replicon)	CC50 at 3 days [1]	CC50 (HCV replicon cells)
Fc1cccc(-c2nc3ccn(Cc4cc(-c5ccc(Cl)cc5)no4)cc-3n2)c1F [Example 5, 5-((3-(4-chlorophenyl)isoxazol-5-yl)methyl)-2-(2,3-difluorophenyl)-5H-imidazo[4,5-c]pyridine]	0.0039 µM	10.8 µM	13.4 µM
Fc1cccc(-c2nc3ccn(Cc4ccc(OC(F)(F)F)cc4)cc-3n2)c1F [Example 3A, 5-(4-(trifluoromethoxy)benzyl)-2-(2,3-difluorophenyl)-5H-imidazo[4,5-c]pyridine]	0.02 µM	34 µM	
Fc1ccccc1-c1nc2ccn(Cc3cc(-c4ccc(Cl)cc4)no3)cc-2n1 [Example 2, 5((3-(4-chlorophenyl)isoxazol-5-yl)methyl)-2-(2-fluorophenyl)-5H-imidazo[4,5-c]pyridine]	0.01 µM	26 µM	
Fc1ccc(-c2ccc(Cn3ccc4nc(-c5cccc(F)c5F)nc-4c3)cc2)c(F)c1 [Example 4, 5-(2,4-difluoro-biphenyl)methyl-2-(2,3-difluorophenyl)-5H-imidazo[4,5-c]pyridine]	0.01 µM	19 µM	

From patent publication US20050222198A1, “Imidazo[4,5-c]pyridine compounds and methods of antiviral treatment” (priority 2003, published 2005)
